Results on 35 compounds are retold here after ChEMBL document CHEMBL3352745, “Serotonin 5-HT6 receptor antagonists for the treatment of cognitive deficiency in Alzheimer's disease” (J Med Chem, 2014).

A value given as a limit tells only on which side of the number the result lay.

System in the first series: not listed separately
The experiment in a line: Ratio of drug level in brain to plasma in rat. In kind it is ADME. The conditions noted are these: brain and plasma, read-out: BPR.
As to `CN1CC=C(c2cn(S(=O)(=O)c3cccc4ccccc34)c3ccc(F)cc23)CC1`, the Kp is 43. Turning to `CN1CCC[C@@H]1Cc1cn(S(=O)(=O)c2ccccc2)c2ccc(Cl)cc12`, the Kp was determined as 23.

System in a further series: not listed separately
The experiment in a line: Oral bioavailability in rat. In kind it is ADME, organism-based. The conditions noted are these: in vivo.
`O=S(=O)(c1ccccc1)c1cnc2c(N3CCNCC3)cccc2c1` [INTEPIRDINE]: the bioavailability – broadly, the share of a dose that reaches the circulation, judged against a reference dose that is usually intravenous – turned out to be 76%. On the same count and under the same terms, in the case of `CN1CC=C(c2cn(S(=O)(=O)c3cccc4ccccc34)c3ccc(F)cc23)CC1` it was 19%; in that of `COc1ccc(NS(=O)(=O)c2sc3ccc(Cl)cc3c2C)cc1N1CCNCC1`, > 80%; in that of `CN1CCC[C@@H]1Cc1cn(S(=O)(=O)c2ccccc2)c2ccc(Cl)cc12`, 17%.

For a further series, the target named is T1, 5-hydroxytryptamine receptor 6 (Homo sapiens, UniProt P50406). The experiment in a line: Inhibition of human recombinant 5HT6 receptor expressed in CHO cells. The class given is cell-based.
T1 sequence (P50406 whole entry): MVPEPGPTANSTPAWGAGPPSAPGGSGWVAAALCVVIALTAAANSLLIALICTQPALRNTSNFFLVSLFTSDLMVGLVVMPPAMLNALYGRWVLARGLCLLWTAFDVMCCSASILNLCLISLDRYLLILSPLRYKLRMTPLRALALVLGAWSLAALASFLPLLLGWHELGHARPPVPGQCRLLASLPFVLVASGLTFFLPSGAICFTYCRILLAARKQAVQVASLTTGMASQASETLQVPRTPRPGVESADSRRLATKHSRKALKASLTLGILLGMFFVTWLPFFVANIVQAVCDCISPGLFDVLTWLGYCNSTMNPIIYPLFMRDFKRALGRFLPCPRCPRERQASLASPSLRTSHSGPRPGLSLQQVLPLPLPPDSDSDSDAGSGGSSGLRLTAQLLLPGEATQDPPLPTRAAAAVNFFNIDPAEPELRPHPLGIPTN
Conditions: not given
In the case of `Nc1ccc(S(=O)(=O)c2cc(Br)nc(N3CCCC3)c2)cc1`, the IC50 (as a rule, the point on the concentration scale where inhibition reaches its midpoint) is 3.2 nM.

For the compound `CN1CC=C(c2cn(S(=O)(=O)c3cccc4ccccc34)c3ccc(F)cc23)CC1`, the IC50 was 24 nM. On the same count and under the same terms, in the case of `COc1ccc(NS(=O)(=O)c2ccc(Br)cc2)cc1N1CCN(C)CC1` it was 16 nM; in that of `CN1CCC[C@@H]1Cc1cn(S(=O)(=O)c2ccccc2)c2ccc(Cl)cc12`, 8.5 nM.

The next series concerns the target T1, 5-hydroxytryptamine receptor 6. The experiment in a line: Antagonist activity at human recombinant 5HT6 receptor expressed in CHO cells.
Conditions: not given
In kind it is cell-based.
Consider `COc1ccc(C)cc1S(=O)(=O)Nc1cc(OC2CCNCC2)c2occc2c1`, for which the Ki (usually a measure of affinity in units of concentration, obtained from inhibition or displacement) was 1.2 nM. On the same count and under the same terms, in the case of `CN1CC2c3ccccc3Oc3ccc(Cl)cc3C2C1` (stereo unspecified) [ASENAPINE] it was 0.25 nM. On the same count and under the same terms, in the case of `Cc1c(S(=O)(=O)Nc2cc3c(c(N4CCN(C)CC4)c2)OCC3)sc2ccc(Cl)cc12` it was 1.6 nM; in that of `COc1cc(Cn2c(=O)ccc3cccc(OC)c32)cc(N2CCNCC2)c1`, 0.9 nM; in that of `CSc1nn2c(N3CCNCC3)nc(C)nc2c1S(=O)(=O)c1ccccc1`, 1.2 nM. On to `CN1CCN(c2cccc3c(S(=O)(=O)c4ccccc4)c[nH]c23)CC1`, for which the Ki turned out to be 0.5 nM. As for `O=S(=O)(c1cccc(Cl)c1)n1ccc2c(N3CCNCC3)c(Cl)ccc21`, the Ki amounted to 0.3 nM. As to `O=C1COc2c(N3CCNCC3)cccc2N1Cc1ccccc1`, the Ki turned out to be 0.2 nM. The same measure, in the same setting: then `CC(Nc1ccc2c(c1)CCNCC2)c1ccccc1Cl` (stereo unspecified), with 14 nM; and `O=C(Nc1ccccc1)n1cc(C2=CCNCC2)c2cc(F)ccc21`, with 118 nM. Same read-out and setting: then `COc1ccc(NS(=O)(=O)c2ccc(I)cc2)cc1N1CCNCC1`, with 2.3 nM. The same measure, in the same setting: then `Cc1cc(C)cc(S(=O)(=O)c2ccc3ccnc(N4CCNCC4)c3c2)c1`, with 11 nM; and `N=C(N)CCC1CCCc2cc(S(=O)(=O)c3ccccc3)ccc21` (stereo unspecified), with 59 nM; and `CN1CC=C(c2cn(S(=O)(=O)c3cccc4ccccc34)c3ccc(F)cc23)CC1`, with 1 nM. In the case of `COc1cc(N2CCNCC2)c2ncc(C)c(Oc3ccccc3)c2c1`, the Ki came out at 1 nM. Same read-out and setting: then `CN1CCCC1Cc1c[nH]c2ccc(OC3CCCCC3)cc12` (stereo unspecified), with 0.93 nM; and `Fc1ccc2c(c1)c(C1=CCNCC1)cn2Cc1ccccc1`, with 10 nM; and `O=c1[nH]c2c(N3CCNCC3)cccc2n1Cc1ccccc1`, with 0.3 nM. The same measure, in the same setting: then `O=S(=O)(Nc1ccc2c(c1)CNCCC2)c1csc(C(F)(F)F)c1-c1ccccc1`, with 32 nM; and `O=S(=O)(c1ccccc1)c1ccc(C2CCNCC2)c2ccccc12`, with 3.8 nM.

As for `CNC[C@@H]1COc2ccc(S(=O)(=O)c3ccccc3)cc2O1`, the Ki was determined as 0.2 nM. The same measure, in the same setting: then `Clc1ccc(-c2[nH]c3ccccc3c2/C=N/NC2=NCCN2)cc1`, with 10 nM. Take `O=S(=O)(c1ccccc1)c1ccc2c(c1)OCCC2N1CCNCC1` (stereo unspecified): the Ki is 0.4 nM. Still for that read-out and setting: in the case of `O=C(c1ccccc1)n1cc(C2=CCNCC2)c2cc(F)ccc21` it was 99 nM. Still for that read-out and setting: in the case of `O=c1n(C2=CCNCC2)c2ccccc2n1S(=O)(=O)c1ccc2ccccc2c1` it was 5.7 nM; in that of `O=S(=O)(c1cccc(Cl)c1Cl)N1CCc2c(cccc2N2CCNCC2)C1`, 0.04 nM. Still for that read-out and setting: then `O=S(=O)(c1cccc(F)c1)c1c[nH]c2c(OCCN3CCCC3)cccc12`, with 20 nM; and `CN1CCC(c2cn(C)c3cc(OS(=O)(=O)c4c(F)cccc4F)ccc23)CC1`, with 1 nM. Consider `COc1ccc(Cl)cc1NS(=O)(=O)c1ccc(OC)c2c1CC[C@H](N(C)C)C2`, for which the Ki came out at 1.7 nM. The same measure, in the same setting: then `O=C1c2cccc(N3CCNCC3)c2Oc2ccc(F)cc2N1Cc1cccc(C(F)(F)F)c1`, with 0.3 nM.

System in the next series: not listed separately
The experiment in a line: Half life in rat. The class given is ADME, organism-based. The conditions noted are these: in vivo.
For the compound `COc1ccc(NS(=O)(=O)c2sc3ccc(Cl)cc3c2C)cc1N1CCNCC1`, the half-life (commonly how long it takes for the measured level to halve) is 4.8 h.
